Test results: patent publication US6627743B1, “6-O-methylerythromycin A crystal form III” (Abbott Laboratories, priority 1999, dated 2003)

Tests used:
[1] = Thermogravimetric analysis of the Form III solvate; assay type: physicochemical; conditions: 6 milligram sample, nitrogen purge, increase of 5° C. per minute (FIG. 4)
Method: Suitable temperatures for the conversion of the Form III solvate to the Form II crystal structure of 6-O-methylerythromycin A can vary depending on the conditions of the reaction. […] At atmospheric pressure, the preferred temperatures for the conversion of the Form III solvate to Form II are from about 80° C. to about 180° C. The more preferred temperatures for the conversion are from about 90° C. to about 105° C. Thermogravimetric analysis was conducted in the following manner. A T.A. Instruments Hi-Res thermogravimetric analyzer with Thermogravimetric Analyzer module 2950 was used along with DuPont 2100 TGA software version 5.1 A. The analysis parameters were: sample weight 6.3640 milligrams; heating rate was room temperature to 200° C. at 5° C./minute under a nitrogen purge.

[2] = Crystal form of the recrystallized solid after drying/heating, by powder X-ray diffraction; assay type: physicochemical
Method: Solids from the recrystallization were prepared according to the methods described above and analyzed under standard conditions with a calibrated Scintag X-ray diffraction system.
The wet solid was allowed to dry at room temperature. The air-dried sample was analyzed and the powder X-ray diffraction data was consistent with the powder X-ray diffraction pattern of a 6-O-methylerythromycin A Form III crystal structure. The air-dried sample was heated to a temperature between about 40° C. to about 45° C. in a calibrated vacuum oven for five days at atmospheric pressure.
A wet solid sample obtained from the recrystallization was heated in a calibrated convection oven to a temperature between about 100° C. and 105° C. […] The testing conditions and the corresponding result are summarized below in Table 1.
Crystallographic data was obtained by solvate single crystal analysis using a Scintag XDS-2000 powder X-ray diffraction system. Samples for X-ray diffraction analysis were prepared by spreading the sample powder (with no prior grinding required) in a thin layer on the sample holder and gently flattening the sample with a microscope slide. A Scintag X-ray Diffraction system was used with the following parameters: X-ray source is CuKα; range is 2-35°; scan rate is 1.00 degree/minute; step size is 0.0300 degree; and wavelength is 1.54060 angstroms.

Compound: CC[C@H]1OC(=O)[C@H](C)[C@@H](OC2CC(C)(OC)C(O)C(C)O2)[C@H](C)[C@@H](OC2OC(C)CC(N(C)C)C2O)[C@@](C)(OC)C[C@@H](C)C(=O)[C@H](C)[C@@H](O)[C@]1(C)O (some centres unmarked) [Form III solvate, 6-O-methylerythromycin A acetonitrile solvate]
- Temperature of conversion of Form III solvate to Form II crystal structure [1]: about 175 °C

Compound: CC[C@H]1OC(=O)[C@H](C)[C@@H](OC2CC(C)(OC)C(O)C(C)O2)[C@H](C)[C@@H](OC2OC(C)CC(N(C)C)C2O)[C@@](C)(OC)C[C@@H](C)C(=O)[C@H](C)[C@@H](O)[C@]1(C)O (some centres unmarked) [Sample 1, 6-O-methylerythromycin A acetonitrile solvate]
- Analytical Result (crystal form by powder X-ray diffraction) ([2]; wet solid from acetonitrile recrystallization): Form III spectra

Compound: CC[C@H]1OC(=O)[C@H](C)[C@@H](OC2CC(C)(OC)C(O)C(C)O2)[C@H](C)[C@@H](OC2OC(C)CC(N(C)C)C2O)[C@@](C)(OC)C[C@@H](C)C(=O)[C@H](C)[C@@H](O)[C@]1(C)O (some centres unmarked) [Sample 2, 6-O-methylerythromycin A acetonitrile solvate]
- Analytical Result (crystal form by powder X-ray diffraction) ([2]; air dried solid, room temperature): Form III spectra

Compound: CC[C@H]1OC(=O)[C@H](C)[C@@H](OC2CC(C)(OC)C(O)C(C)O2)[C@H](C)[C@@H](OC2OC(C)CC(N(C)C)C2O)[C@@](C)(OC)C[C@@H](C)C(=O)[C@H](C)[C@@H](O)[C@]1(C)O (some centres unmarked) [Sample 3, 6-O-methylerythromycin A acetonitrile solvate]
- Analytical Result (crystal form by powder X-ray diffraction) ([2]; heat 40° C.-45° C., 5 days): Form III spectra

Compound: CC[C@H]1OC(=O)[C@H](C)[C@@H](OC2CC(C)(OC)C(O)C(C)O2)[C@H](C)[C@@H](OC2OC(C)CC(N(C)C)C2O)[C@@](C)(OC)C[C@@H](C)C(=O)[C@H](C)[C@@H](O)[C@]1(C)O (some centres unmarked) [Sample 4, 6-O-methylerythromycin A]
- Analytical Result (crystal form by powder X-ray diffraction) ([2]; heat to 100° C.-105° C., 24 hours): Form II spectra
